Data set [1] deals with PKA in bovine caudal and caput sperm. The data set can be described thus: PKA activity of bovine caudal and caput sperm after treatment. Type of data set: cell-based. The following applies: 50 μM. As for the experimental part: PKA Activity. PKA activity was assayed as previously described (Carr et al., J. Biol. Chem. 268:20729-20732, 1993) with minor changes. Whole caput or caudal sperm were treated with 2-chloro-2′-deoxyadenosine (50 μM), H-89 (50 μM), or both for 30 min. at 37° C. The sperm were then washed twice in ice cold homogenization buffer supplemented with protease inhibitors, benzamidine (10 mM), leupeptin (4 μg/ml), and N-tosyl-L-phenylalanine chloromethyl ketone (TPCK) (100 μM), and sonicated for one min. Reaction mixtures (20 microliters (μl) total) contained 250 μM Kemptide (i.e., LRRASLG), 250 μM (γ^32P) ATP, 25 mM Na3VO4, 50 mM 3-[N-morpholino] propanesulfonic acid (MOPS) (pH=7.0), 10 mM MgCl2, 0.25 mg/ml BSA and where indicated, 10 μM cAMP. Assays were initiated by addition of labeled ATP, incubated for 2 min at 30° C., and stopped by addition of 30 μl of 1 N HCl. Twenty μl of the reaction was then spotted on phosphocellulose paper followed by three washes in 75 mM phosphoric acid. The papers were then analyzed by Cerenkov counting. All determinations were made in quadruplicate.
In previous reports, initiation or stimulation of sperm motility by CDA was associated with an elevation of cAMP and an increase in PKA activity was assumed (Vijayaraghavan and Hoskins, Biol. Reprod. 34:468-77, 1986). […] Bovine sperm were incubated as described for FIGS. 14 and 15 and then assessed for PKA activity. […]

Data set [2] concerns bovine caudal epididymal sperm. The data set can be described thus: Bovine sperm motility (CASMA, forward motility index). The class given is cell-based. The method, then: (§1) Sperm Preparation. Testes from mature bulls with intact tunica were obtained from a local slaughterhouse and sperm from caput or caudal epididymis were isolated and washed as previously described (Vijayaraghavan et al., Biol. Reprod. 32:489-500, 1985). The sperm were resuspended in buffer A (120 mM NaCl, 10 mM KCl, 10 mM Tris[hydroxymethyl]aminomethane (TRIS), pH 7.4) supplemented with 10 mM glucose and 10 mg/ml bovine serum albumin (BSA) for motility measurements. Monkey semen was obtained by electro-ejaculation and processed by procedures previously reported (Smith et al., Biol. Reprod. 54:719-727, 1996). Human semen samples were obtained from a fertility clinic at the Oregon Health Sciences University.
(§2) Sperm Motility Measurement. Head motility parameters were determined as previously described (Vijayaraghavan et al., Biol. Reprod. 54:709-718, 1996; Stephens et al., Biol. Reprod. 38:577-586, 1988). A 3-4 μL aliquot of sperm suspension (5×10^7/ml) was loaded onto a counting chamber at 37° C. After bulk fluid movement had subsided, six different locations on the slide were recorded. The videotaped segments were analyzed by a computerized image-analysis system (CASMA) as previously described (Vijayaraghavan et al., Biol. Reprod. 54:709-718, 1996; Stephens et al., Biol. Reprod. 38:577-586, 1988). This computer system measured several parameters of head motion, including forward motility. The forward Motility Index (FMI) was used as the measure of motility. FMI is a product of percent motile (%M, percent of sperm moving at velocity greater than 20 mm/sec) and average velocity (Va, the five-point smoothed average of the head positions through analysis of at least twenty frames).

The subject of a further data set is sperm. Type of data set: cell-based. As for the experimental part:
In the first such experiment, the vital dyes SYBR-green and rhodamine 123 were added to sperm before and after treatment with s-Ht31 in order to determine whether s-Ht31 affects sperm viability or structural integrity. Only viable, intact cells normally take up such dyes.

In a further data set the test system is RII binding to AKAP 110. The data set can be described thus: RII overlay assay on bovine sperm AKAP. The following applies: 20 μM peptide, densitometric scanning, FIG. 6. The text has this: Western blotting and overlay assays. The overlay procedure is a modified Western blot procedure. Proteins were separated by SDS-polyacrylamide gel electrophoresis (SDS-PAGE) and transferred to a nylon membrane (Immobilon). After treatment with Blotto (Protein Methods, Bollag and Edelstein, eds., Wiley-Liss, New York, 1991) to prevent non-specific binding, radiolabelled RIIα or RIIβ probes were applied (Carr and Scott, Trends Biochem. Sci. 17:246-249, 1992). Recombinant RIIα was produced as previously described (Carr et al., J. Biol. Chem. 266:14188-14192, 1991; Carr et al., J. Biol. Chem. 267:13376-13382, 1992). RIIα and RIIβ were gifts from Dr. John Scott, Oregon Health Sciences University, Portland, Oreg. Two different variations of the overlay assay were used. In the first variation, recombinant RII radiolabeled by incubation with the catalytic subunit of PKA and γ^32P-ATP was used. After separation from free γ^32P-ATP, the ^32P-labeled RII (500,000 CPM/10 ml blotto) was incubated with the blocked blot for four hours followed by washing and autoradiography. […]
RII overlays were performed in the absence (lane 1) or presence of 20 μM Ht31, s-Ht31, or s-Ht31-P (lanes 2, 3 or 4, respectively). Addition of the three peptide species inhibited RII binding to AKAP110 by 100%, 85% and 0%, respectively, as determined by densitometric scanning analysis.

A further data set deals with monkey ejaculated sperm. The experiment in a line: Monkey sperm motility. The class given is cell-based, rhesus monkey. The following applies: increasing concentrations in neat semen, 37° C., 5 and 30 min, FIG. 11. The method, then: as §1
as §2, with “The forward Motility Index (FMI) was used as the measure of motility. FMI is a product of percent motile (%M, percent of sperm moving at velocity greater than 20 mm/sec) and average velocity (Va, the five-point smoothed average of the head positions through analysis of at least twenty frames).” left out

Another data set concerns insulin receptor. The following applies: intact CHO/HIRc cells; cited from earlier work.
Another data set deals with PP-2A (Homo sapiens, UniProt P67775). The following applies: cited from earlier work.
A further data set relates to alkaline phosphatase. The following applies: cited from earlier work.
A further data set concerns the target PP-1 (Homo sapiens, UniProt P62136). The following applies: cited from earlier work.
Data set [3] concerns the target RII, 32P-labeled recombinant regulatory subunit of PKA (isoform not given) used as overlay probe. The data set can be described thus: RII overlay of bovine sperm blot with 20 µM peptide, densitometric scanning.
For data set [4], the target named is endogenous RII isoforms of sperm (bands at about 55 kDa). The experiment in a line: cell-based or functional assay.

The values that follow come from patent publication US6610657B1, “Alkyl peptide amides and applications” (Promega Corporation, priority 1996, dated 2003).

For orientation: inhibition means the share of the control response that was lost under treatment.

*: point of attachment. Stearyl = stearyl group; stearyl = stearyl group; sulfo = O=S(=O)(O)* Where only a bound is given, the exact number is not on record here.

Sequence of PP-1 (P62136 whole entry, canonical isoform): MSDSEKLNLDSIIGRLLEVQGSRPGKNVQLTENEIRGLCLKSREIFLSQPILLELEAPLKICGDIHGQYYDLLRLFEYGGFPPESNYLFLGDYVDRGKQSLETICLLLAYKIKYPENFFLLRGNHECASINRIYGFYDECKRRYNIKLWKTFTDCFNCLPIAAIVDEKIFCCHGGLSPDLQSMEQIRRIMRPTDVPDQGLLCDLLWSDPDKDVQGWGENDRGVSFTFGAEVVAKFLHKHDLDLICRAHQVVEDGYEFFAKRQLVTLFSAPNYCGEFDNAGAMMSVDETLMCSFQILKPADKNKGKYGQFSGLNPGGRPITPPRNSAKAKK
Sequence of PP-2A (P67775 whole entry): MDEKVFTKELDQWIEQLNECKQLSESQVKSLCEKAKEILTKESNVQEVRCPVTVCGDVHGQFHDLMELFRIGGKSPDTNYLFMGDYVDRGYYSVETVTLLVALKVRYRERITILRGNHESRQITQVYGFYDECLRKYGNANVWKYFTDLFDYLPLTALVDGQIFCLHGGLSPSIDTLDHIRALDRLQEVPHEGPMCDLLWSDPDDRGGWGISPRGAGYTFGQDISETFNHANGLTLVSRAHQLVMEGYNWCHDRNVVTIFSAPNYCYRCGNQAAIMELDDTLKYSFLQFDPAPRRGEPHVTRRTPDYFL

As to `Nc1nc(Cl)nc2c1ncn2[C@H]1C[C@H](O)[C@@H](CO)O1` [CDA, 2-chloro-2′-deoxyadenosine], the “Increase of basal PKA activity” value in [1] (30 min at 37° C., both caudal and caput sperm) was “approximately 60%”. On to `O=S(=O)(NCCNCC=Cc1ccc(Br)cc1)c1cccc2cnccc12` [H-89, N-[2-(p-bromocinnamylamino)ethyl]-5-isoquinoline-sulfonamide], for which, in data set [2] (50 μM H-89 added 15 min prior to 50 μM CDA), the “Effect on sperm motility stimulated by CDA” value was “no effect”. Also, the inhibition at 50 µM in data set [2] (Bos taurus, Sperm, 0.25 h, 50 μM, 15 min, FIG. 14, read-out: Inhibition of basal sperm motility) is ≤ 50%. In addition, in data set [1] (in the presence or absence of CDA, sperm washed before lysis), the “Effect on PKA activity of treated sperm” value is given as “strongly inhibited PKA activity”. Take `C[C@@H]1CC[C@@]2(OC1)O[C@H]1[C@@H](O)[C@H]3[C@@H]4CC[C@H]5C[C@@H](O[C@@H]6O[C@H](CO)[C@H](O[C@@H]7O[C@H](CO)[C@@H](O)[C@H](O[C@@H]8OC[C@@H](O)[C@H](O)[C@H]8O)[C@H]7O[C@@H]7O[C@H](CO)[C@H](O)[C@H](O[C@@H]8O[C@H](CO)[C@@H](O)[C@H](O)[C@H]8O)[C@H]7O)[C@H](O)[C@H]6O)[C@H](O)C[C@]5(C)[C@H]4CC[C@]3(C)[C@H]1[C@@H]2C` [digitonin]: the “Release of BCECF or Fura 2 from loaded sperm” value in the data set with sperm is recorded as “caused release of these dyes”.

Consider `CCCCCCCCCCCCCCCCCC(=O)N[C@@H](CC(=O)O)C(=O)N[C@@H](CC(C)C)C(=O)N[C@H](C(=O)N[C@@H](CCC(=O)O)C(=O)N[C@@H](CCC(=O)O)C(=O)N[C@@H](C)C(=O)N[C@@H](C)C(=O)N[C@@H](CO)C(=O)N[C@@H](CCCNC(=N)N)C(=O)N[C@H](C(=O)N[C@H](C(=O)N[C@@H](CC(=O)O)C(=O)N[C@@H](C)C(=O)N[C@H](C(=O)N[C@H](C(=O)N[C@@H](CCC(=O)O)C(=O)N[C@@H](CCC(N)=O)C(=O)N[C@H](C(=O)N[C@@H](CCCCN)C(=O)N[C@@H](C)C(=O)N[C@@H](C)C(=O)NCC(=O)N[C@@H](C)C(=O)N[C@@H](Cc1ccc(O)cc1)C(=O)O)C(C)C)[C@@H](C)CC)C(C)C)C(C)C)[C@@H](C)CC)[C@@H](C)CC` [s-Ht31], for which, in the data set with sperm, the “Effect on sperm viability / plasma membrane integrity (uptake of SYBR-green and rhodamine 123)” value is recorded as “did not decrease viability or disrupt the integrity of the sperm plasma membrane”; the “Release of BCECF or Fura 2 from loaded sperm” value was “did not compromise the integrity of the plasma membrane”. Consider “DLIEEAASRIVDAVIEQVKAAGAY (listed as Homo sapiens) [Ht31]”, for which, in the data set with RII binding to AKAP 110, the “Inhibition of RII binding to AKAP110” value is 100%. In the case of “Stearyl-DLIEEAASRPVDAVPEQVKAAGAY amide (Stearyl-DLIEEAASRPVDAVPEQVKAAGAY-NH2; listed as Homo sapiens) [s-Ht31-P]”, the “Effect on sperm motility” value in data set [2] (concentrations up to 20 μM, 5 min) is reported as “no effect”. For “Stearyl-YETLLIETASSLVKNAIQLSIE amide (Stearyl-YETLLIETASSLVKNAIQLSIE-NH2; listed as Homo sapiens) [s-AKAP79]”, the “Effect on motility of monkey-ejaculate sperm” value with monkey ejaculated sperm is “inhibited sperm motility in a concentration- and time-dependent manner”. In the case of “TRDIYETDYYRK-amide (Stearyl-TRDIY(sulfo)ETDY(sulfo)Y(sulfo)RK-NH2; not fully specified; printed as TRDIYETDYYRK-amide; listed as Homo sapiens)”, the “Increase in insulin-stimulated receptor autophosphorylation” value in the data set with insulin receptor is on record as 4.5 fold. In the data set with PP-2A, the “Effect on activity of PP-2A” value is on record as “did not have an effect”. Also, the “Effect on activity of alkaline phosphatase” value in the data set with alkaline phosphatase is “did not have an effect”. Moreover, the “Effect on activity of PP-1” value with PP-1 is reported as “did not have an effect”.

For stearyl-DLIEEAASRPVDAVPEQVKAAGAY-NH2 [s-Ht31-P: Stearyl-… amide], the percent inhibition of RII binding to AKAP110 in data set [3] was 0%. On to Stearyl-DLIEEAASRIVDAVIEQVKAAGAY-NH2 (not fully specified) [s-Ht31: Stearyl-… amide], for which the percent inhibition of RII binding to AKAP110 in data set [3] was 85%. The concentration of s-Ht31 needed to produce 50% inhibition of bovine sperm motility, five minutes post-treatment in [4] was determined as 1 µM. On to DLIEEAASRIVDAVIEQVKAAGAY [Ht31 (anchor inhibiting peptide, non-stearated)], for which, in data set [3], the percent inhibition of RII binding to AKAP110 is 100%.
